Reference: patent EP0357092B1, “Preparation of diacetoxybenzylidene diacetates” (KUREHA KAGAKU KOGYO KABUSHIKI KAISHA, priority 1983, dated 1985)
Read-outs that look alike come from different tables or passages of the source.

Key:
[1] = Acute mammalian toxicity (oral LD50); details: mouse, in vivo
Experimental: After dispersing present substance No.1 in an aqueous 0.2 % solution of carboxymethylcellulose, the aqueous dispersion was orally administered to each of male Jcl-ICR mice. As a result, LD₅₀ (acute, oral) of the tested substance was larger than 4,000 mg/kg.

[2] = system: proliferation of granuloma; experiment: Suppression of proliferation of granuloma, filter paper implant method of Fujimura; assay type: in vivo, male Donryu rats; details: once a day for 10 days, rats, dried granuloma weighed after 11 days
Experimental: While using groups of male Donryu rats in the fifth week after birth (5 rats per group), the activity of present substance No.1 in suppressing the proliferation of granuloma was tested by the method of Fujimura (refer to OYOYAKURI (Pharmacometrics), 19 (3), 329, 1980).
After soaking sheets of filter paper of 13 mm in diameter and 28 mg in weight into an aqueous 2% solution of carboxymethylcellulose containing both dihydroxystreptomycin and penicillin, each of 10⁶ unit at the respective concentration of 0.1 mg/ml, each of the thus treated sheets was buried subcutaneously into the back of each rat under anaesthesia by ether. […] After 11 days of the treatment, granuloma formed in the rat was removed, dried for 24 hours at 70°C and weighed.

[3] = system: migration of polymorphonuclear leukocytes (PMN) to the site of inflammation; experiment: Suppression of migration of polymorphonuclear leukocytes, carboxymethylcellulose-pouch method; assay type: in vivo, male Donryu rats; details: rats, PMN counted 6 hours after injection into pouch
Experimental: While using groups of male Donryu rats (six rats per group) and following the carboxymethylcellulose-pouch method (refer to Ishikawa et al. […] ZASSHI (Journal of the Pharmaceutical Society of Japan), 88, 1472, 1968), the extent of inhibition of migration of polymorphonuclear leukocytes to the site of inflammation by present substance No.1 was examined. The specimen (present substance No.1) was dispersed in an aqueous 0.2 % solution of carboxymethylcellulose and the dispersion was administered to each rat at a predetermined dose rate, and only the aqueous 0.2 % solution of carboxymethylcellulose was administered to each rat of control group. The test was carried out by injecting the aqueous 0.2 % solution of carboxymethyl-cellulose into the pouch formed in the body of the rat and after 6 hours of the injection, the number of polymorphonuclear leukocytes in the exudate into the pouch was counted. […]

| Compound | LD50 ([1]; oral, male Jcl-ICR mice, dispersed in aqueous 0.2 % carboxymethylcellulose, read-out: LD₅₀ (acute, oral)) [mg/kg] | Granuloma Rate of Suppression (%) ([2]; dose rate 50 mg/kg/day oral) | Rate of suppression of migration of PMN (%) ([3]; dose rate 50 mg/kg) | Rate of suppression of migration of PMN (%) ([3]; dose rate 5 mg/kg) | Granuloma Rate of Suppression (%) ([2]; dose rate 3 mg/kg/day oral) | LD50 ([1]; male, Jcl-ICR, po) [mg/kg] | Granuloma Rate of Suppression (%) ([2]; dose rate 5 mg/kg/day oral) | Granuloma Rate of Suppression (%) ([2]; dose rate 10 mg/kg/day oral) | Rate of suppression of migration of PMN (%) ([3]; dose rate 10 mg/kg) |
| --- | --- | --- | --- | --- | --- | --- | --- | --- | --- |
| O=Cc1ccc(O)c(O)c1 [3,4-dihydroxy-benzaldehyde, 3,4-dihydroxybenzaldehyde, reference compound] | 1500 | 35.6 | 27.5 | – | – | – | – | – | – |
| COc1ccc2c(c1)c(CC(=O)O)c(C)n2C(=O)c1ccc(Cl)cc1 [Indomethacin, reference compound] | – | – | – | 35.7 | – | – | – | – | – |
| C[C@]12C=CC(=O)C=C1CC[C@@H]1[C@@H]2[C@@H](O)C[C@@]2(C)[C@H]1CC[C@]2(O)C(=O)CO [Prednisolone, reference compound] | – | – | – | 37.5 | 42.2 | – | – | – | – |
| CC(=O)Oc1ccc(C(OC(C)=O)OC(C)=O)cc1OC(C)=O [Present Substance No.1, 3,4-diacetoxybenzylidene diacetate] | – | 61.4 | 51.9 | 41.2 | – | > 4000 | 42.8 | 55.3 | 48.0 |
